# Assay results taken from article PMC7854729 (Nature Communications, 2021).
# Values joined by “and” are separate entries in the source; they are usually repeats but may differ in a detail not shown here. Equal entries are not always repeated. Where two headings read alike, the source gives them in different places.
# Key:
# SARS-CoV-2 = test: microbe, parasite or virus in culture; format: cell-based, SARS-CoV-2 (nCoV/Washington/1/2020) in Vero E6 cells; details: for EC50: Severe acute respiratory syndrome coronavirus 2, Vero C1008, 24 h; for Percent Spike Positive Cells: relative to DMSO treated cells, single replicates
# SARS-CoV = details: cited from earlier work
# PLpro from MERS = details: cited from earlier work
# Vero E6 cells = details: cited from earlier work
# SARS-CoV-2 PLpro = SARS-CoV-2 PLpro (Severe acute respiratory syndrome coronavirus 2, UniProt P0DTD1); test: biochemical
compound,measurement,setting,value
"Cc1ccc(N)cc1C(=O)N[C@H](C)c1cccc2ccccc12 [Compound 1, 5-amino-2-methyl-N-[(1R)-1-naphthalen-1-ylethyl]benzamide]",inhibition of virus replication,SARS-CoV-2,inhibiting virus replication
same,EC50,SARS-CoV-2,1.4 ± 0.65 µM
same,potency in SARS-CoV-infected Vero E6 cells,SARS-CoV,good potency
same,inhibition of MERS PLpro,PLpro from MERS,not inhibited
same,cytotoxicity,Vero E6 cells,low cytotoxicity
"CCCCNC(=O)Nc1ccc(C)c(C(=O)N[C@H](C)c2cccc3ccccc23)c1 [Compound 5, 5-(butylcarbamoylamino)-2-methyl-N-[(1R)-1-naphthalen-1-ylethyl]benzamide]",IC50,SARS-CoV-2 PLpro; IC50,16.8 µM and 32.8 µM
same,"PLpro assay signal (source data Figure 2, single replicates)","SARS-CoV-2 PLpro; Log(M) -3.30103, listed as 5 (Snyder539)",225 and 216 and 235
same,"PLpro assay signal (source data Figure 2, single replicates)","SARS-CoV-2 PLpro; Log(M) -3.60206, listed as 5 (Snyder539)",256 and 292 and 307
same,"PLpro assay signal (source data Figure 2, single replicates)","SARS-CoV-2 PLpro; Log(M) -4, listed as 5 (Snyder539)",289 and 427 and 447
same,"PLpro assay signal (source data Figure 2, single replicates)","SARS-CoV-2 PLpro; Log(M) -4.30103, listed as 5 (Snyder539)",464 and 626 and 554
same,"PLpro assay signal (source data Figure 2, single replicates)","SARS-CoV-2 PLpro; Log(M) -4.69897, listed as 5 (Snyder539)",802 and 736 and 827
same,"PLpro assay signal (source data Figure 2, single replicates)","SARS-CoV-2 PLpro; Log(M) -5, listed as 5 (Snyder539)",945 and 917 and 894
same,"PLpro assay signal (source data Figure 2, single replicates)","SARS-CoV-2 PLpro; Log(M) -5.39794, listed as 5 (Snyder539)",1120 and 1187 and 1137
same,"PLpro assay signal (source data Figure 2, single replicates)","SARS-CoV-2 PLpro; Log(M) -5.69897, listed as 5 (Snyder539)",1190 and 1202 and 1324
same,"PLpro assay signal (source data Figure 2, single replicates)","SARS-CoV-2 PLpro; Log(M) -6.09691, listed as 5 (Snyder539)",1485 and 1470 and 1518
same,"PLpro assay signal (source data Figure 2, single replicates)","SARS-CoV-2 PLpro; Log(M) -6.39794, listed as 5 (Snyder539)",1389 and 1269 and 1337
same,EC50,SARS-CoV-2; read-out: EC50,2.5 µM
same,inhibition of virus replication,"SARS-CoV-2; Vero E6, SARS-CoV-2",inhibiting virus replication
same,Percent Spike Positive Cells,SARS-CoV-2; [Drug] 0.1 uM,115%
same,Percent Spike Positive Cells,SARS-CoV-2; [Drug] 1 uM,115%
same,Percent Spike Positive Cells,SARS-CoV-2; [Drug] 10 uM,69% and 115% and 92%
"Cc1ccc(NC(=O)Oc2ccc([N+](=O)[O-])cc2)cc1C(=O)N[C@H](C)c1cccc2ccccc12 [Compound 6, 5-(((4-nitrophenoxy)carbonyl)amino)-2-methyl-N-[(1R)-1-naphthalen-1-ylethyl]benzamide]","PLpro assay signal (source data Figure 2, single replicates)","SARS-CoV-2 PLpro; Log(M) -3.30103, listed as 6 (Snyder538)",62 and 61 and 69
same,"PLpro assay signal (source data Figure 2, single replicates)","SARS-CoV-2 PLpro; Log(M) -3.60206, listed as 6 (Snyder538)",86 and 78 and 83
same,"PLpro assay signal (source data Figure 2, single replicates)","SARS-CoV-2 PLpro; Log(M) -4, listed as 6 (Snyder538)",127 and 161 and 203
same,"PLpro assay signal (source data Figure 2, single replicates)","SARS-CoV-2 PLpro; Log(M) -4.30103, listed as 6 (Snyder538)",120 and 170 and 193
same,"PLpro assay signal (source data Figure 2, single replicates)","SARS-CoV-2 PLpro; Log(M) -4.69897, listed as 6 (Snyder538)",420 and 406 and 486
same,"PLpro assay signal (source data Figure 2, single replicates)","SARS-CoV-2 PLpro; Log(M) -5, listed as 6 (Snyder538)",662 and 534 and 618
same,"PLpro assay signal (source data Figure 2, single replicates)","SARS-CoV-2 PLpro; Log(M) -5.39794, listed as 6 (Snyder538)",926 and 988 and 896
same,"PLpro assay signal (source data Figure 2, single replicates)","SARS-CoV-2 PLpro; Log(M) -5.69897, listed as 6 (Snyder538)",1105 and 1269 and 1030
same,"PLpro assay signal (source data Figure 2, single replicates)","SARS-CoV-2 PLpro; Log(M) -6.09691, listed as 6 (Snyder538)",1318 and 1309 and 1349
same,"PLpro assay signal (source data Figure 2, single replicates)","SARS-CoV-2 PLpro; Log(M) -6.39794, listed as 6 (Snyder538)",1380 and 1317 and 1379
same,IC50,"SARS-CoV-2 PLpro; pH 7.3, read-out: IC50",7 ± 0.6 µM
same,inhibition of virus replication,"SARS-CoV-2; Vero E6, SARS-CoV-2",inhibiting virus replication
same,Percent Spike Positive Cells,SARS-CoV-2; [Drug] 0.1 uM,92% and 115% (2×)
same,Percent Spike Positive Cells,SARS-CoV-2; [Drug] 1 uM,115%
same,Percent Spike Positive Cells,SARS-CoV-2; [Drug] 10 uM,46% and 69%
"CCCCC(=O)Nc1ccc(C)c(C(=O)N[C@H](C)c2cccc3ccccc23)c1 [Compound 7, 5-pentanoylamino-2-methyl-N-[(1R)-1-naphthalen-1-ylethyl]benzamide]","PLpro assay signal (source data Figure 2, single replicates)","SARS-CoV-2 PLpro; Log(M) -3.30103, listed as 7 (Snyder514)",189 and 225 and 281
same,"PLpro assay signal (source data Figure 2, single replicates)","SARS-CoV-2 PLpro; Log(M) -3.60206, listed as 7 (Snyder514)",257 and 276 and 274
same,"PLpro assay signal (source data Figure 2, single replicates)","SARS-CoV-2 PLpro; Log(M) -4, listed as 7 (Snyder514)",332 and 331 and 303
same,"PLpro assay signal (source data Figure 2, single replicates)","SARS-CoV-2 PLpro; Log(M) -4.30103, listed as 7 (Snyder514)",346 and 354 and 361
same,"PLpro assay signal (source data Figure 2, single replicates)","SARS-CoV-2 PLpro; Log(M) -4.69897, listed as 7 (Snyder514)",672 and 717 and 815
same,"PLpro assay signal (source data Figure 2, single replicates)","SARS-CoV-2 PLpro; Log(M) -5, listed as 7 (Snyder514)",856 and 922 and 1036
same,"PLpro assay signal (source data Figure 2, single replicates)","SARS-CoV-2 PLpro; Log(M) -5.39794, listed as 7 (Snyder514)",1160 and 1233 and 1196
same,"PLpro assay signal (source data Figure 2, single replicates)","SARS-CoV-2 PLpro; Log(M) -5.69897, listed as 7 (Snyder514)",1260 and 1362 and 1272
same,"PLpro assay signal (source data Figure 2, single replicates)","SARS-CoV-2 PLpro; Log(M) -6.09691, listed as 7 (Snyder514)",1429 and 1375 and 1302
same,"PLpro assay signal (source data Figure 2, single replicates)","SARS-CoV-2 PLpro; Log(M) -6.39794, listed as 7 (Snyder514)",1493 and 1486 and 1598
same,IC50,"SARS-CoV-2 PLpro; pH 7.3, read-out: IC50",12.7 ± 1.3 µM
same,EC50,SARS-CoV-2; read-out: EC50,5.2 ± 4.2 µM
same,inhibition of virus replication,"SARS-CoV-2; Vero E6, SARS-CoV-2",inhibiting virus replication
same,Percent Spike Positive Cells,SARS-CoV-2; [Drug] 0.1 uM,115% (2×) and 92%
same,Percent Spike Positive Cells,SARS-CoV-2; [Drug] 1 uM,69% (2×) and 115%
same,Percent Spike Positive Cells,SARS-CoV-2; [Drug] 10 uM,46% and 23% and 35%
